Measured values from patent US11008340B2, “Modulators of ROR-gamma” (Vitae Pharmaceuticals, LLC, priority 2015, dated 2021).
pIC50, pKi: −log10 of the molar value. Like-named read-outs stand apart in the source and are kept apart here.

Experiments:
[1] = biological target: T1, recombinant RORγ Ligand Binding Domain (LBD) protein (Homo sapiens, UniProt P51449); test: Radio-Ligand RORγ Binding Assay (Assay 1); conditions: radio-ligand competition, RORγ LBD, read-out: Avg ROR Bind Ki
T1 construct: 6×His; GST
T1 sequence (P51449 269-508 limits assumed): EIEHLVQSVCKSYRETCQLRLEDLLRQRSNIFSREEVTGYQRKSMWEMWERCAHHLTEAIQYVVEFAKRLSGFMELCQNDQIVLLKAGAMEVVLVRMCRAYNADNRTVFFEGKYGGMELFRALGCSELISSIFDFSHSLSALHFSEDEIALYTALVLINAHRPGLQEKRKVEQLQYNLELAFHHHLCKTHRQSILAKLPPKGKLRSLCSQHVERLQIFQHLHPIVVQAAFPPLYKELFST
Experimental: Radio-Ligand RORγ Binding Assay (Assay 1)
Compounds described herein were tested for ability to bind to RORγ in a cell-free competition assay with commercially available radio-ligand (RL), 25-hydroxy [26,27-^3H]-cholesterol (PerkinElmer, Cat. #NET674250UC), for a ligand binding site on a recombinant RORγ Ligand Binding Domain (LBD) protein expressed as a 6×His-Glutathione-S-Transferase (GST) fusion. The assay was performed in 96-well SPA plates (PerkinElmer, Cat. #1450-401) in 50 mM HEPES buffer, pH 7.4, containing 150 mM NaCl, 5 mM MgCl2, 10% (v/v) glycerol, 2 mM CHAPS, 0.5 mM 3-octylglucopyranoside and 5 mM DTT. Tested compounds were dissolved in DMSO, and semi-log (3.162×) serial dilutions of the compounds were prepared in the same solvent. Two μL of the DMSO solutions were mixed with 28 μL of 8.6 nM 25-hydroxy [26,27-^3H]-cholesterol and 50 μL of 24 nM RORγ LBD. The plate was shaken at 700 rpm for 20 min and incubated for 10 min at rt, after which 40 μL of poly-Lys YSi SPA beads (PerkinElmer, Cat. #RPNQ0010) were added to achieve 50 μg of the beads per well. The plate was incubated on an orbital shaker for 20 min and then for 10 min without agitation at rt. SPA signal for tritium beta radiation was registered on PerkinElmer Microbeta plate reader. […] The percent inhibition vs. concentration data were fit into a four-parameter model, and IC50 values were calculated from the fit as the concentrations corresponding to the inflection points on the dose-response curves. Inhibitory constants (Ki) were calculated using the following equation, where [RL] is the concentration in the assay and KD is a dissociation constant of 25-hydroxy [26,27-^3H]-cholesterol: […]

[2] = biological target: T2, full-length RORγt in Jurkat cells (Homo sapiens, UniProt P51449); test: RORγt 5×RORE Assay in Jurkat Cells (Assay 2); format: cell-based; conditions: 5×RORE luciferase reporter
T2 construct: transcriptional activity of the full-length RORγt in Jurkat cells; host or cells: Jurkat cells (ATCC TIB-152)
T2 sequence (P51449 1-497 isoform P51449-2): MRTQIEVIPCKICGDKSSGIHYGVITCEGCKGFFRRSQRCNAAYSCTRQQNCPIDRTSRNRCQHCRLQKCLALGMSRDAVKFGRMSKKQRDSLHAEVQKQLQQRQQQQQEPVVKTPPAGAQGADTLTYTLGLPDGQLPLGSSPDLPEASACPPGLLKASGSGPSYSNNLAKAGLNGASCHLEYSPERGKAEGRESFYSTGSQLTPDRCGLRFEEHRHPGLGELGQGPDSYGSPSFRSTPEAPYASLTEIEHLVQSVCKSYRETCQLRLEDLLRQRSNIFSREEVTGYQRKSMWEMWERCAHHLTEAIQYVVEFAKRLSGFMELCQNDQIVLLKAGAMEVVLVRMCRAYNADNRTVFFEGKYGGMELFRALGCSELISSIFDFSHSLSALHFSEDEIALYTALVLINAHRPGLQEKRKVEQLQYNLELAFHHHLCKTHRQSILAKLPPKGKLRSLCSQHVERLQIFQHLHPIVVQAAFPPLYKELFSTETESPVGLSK
Experimental: [formula] RORγt 5×RORE Assay in Jurkat Cells (Assay 2)
Compounds described herein were tested for RORγ inverse agonist activity in a cell-based, transcriptional activity assay. Secreted Nanoluc″ luciferase was used as a reporter for transcriptional activity of the full-length RORγt in Jurkat cells (ATCC, Cat. #TIB-152). A reporter plasmid was constructed by inserting 5 repeats of the ROR Response Element (RORE) […] (SEQ ID NO: 1) into a commercially available promoterless plasmid pNL1.3[secNluc] (Promega, Cat. #N1021) using KpnI and HindIII restriction sites. The expression plasmid for RORγt was purchased (Geneocopoeia, Cat. #EX-T6988-M02). Jurkat cells (30 million cells) were transfected with 11 μg of EX-T6988-MO2 and 26 μg of the reporter plasmid in OptiMEM® media using Lipofectamine LTX and Plus™ reagents (Life Technologies, Cat. #15338-100). After 5-6 hrs of incubation at 37° C./5% CO2, the cells were collected, resuspended in phenol-red free RPMI media containing 10% (v/v) delipidated FBS (Hyclone, Cat. #SH30855.03) and dispensed into 96-well clear bottom tissue culture plates (CoStar, Cat. #3603), at 80,000 cells per well. Tested compounds were added to the cells in the same media (final concentration of DMSO was 0.1% (v/v)), and the plates were incubated at 37° C./5% CO2 for 16-18 hrs. Luciferase activity in the conditioned supernatants was determined with NanoGlo® assay reagents (Promega, Cat. #N1130).

[3] = 25-hydroxy [26,27-3H]-cholesterol
[4] = Table 20, read-out: Avg ROR γt/5x IC5
[5] = head without unit (Tables 15, 17)

| pKi [1, 3] | pIC50 ([2]; read-out: Avg ROR γt/5x IC50) | pIC50 [2, 4] | pKi [1, 5] | Compound |
| --- | --- | --- | --- | --- |
| > 7.00 | 6.00 to 7.00 |  |  | CCS(=O)(=O)c1ccc(CNC(=O)c2ccc3c(OC[C@H]4CC[C@H](C(F)(F)F)CC4)nccc3c2)cc1 [Hy1A-5, N-(4-(ethylsulfonyl)benzyl)-1-(((1r,4r)-4-(trifluoromethyl)cyclohexyl)methoxy)isoquinoline-6-carboxamide] |
| > 7.00 | 6.00 to 7.00 |  |  | CCS(=O)(=O)c1ccc([C@H](CO)NC(=O)c2ccc3c(OCC4CCN(CC(F)(F)F)CC4)nc(C)cc3c2)cc1 [Hy1A-19, (R)-N-(1-(4-(ethylsulfonyl)phenyl)-2-hydroxyethyl)-3-methyl-1-((1-(2,2,2-trifluoroethyl)piperidin-4-yl)methoxy)isoquinoline-6-carboxamide] |
| > 7.00 | < 6.00 |  |  | CCS(=O)(=O)c1ccc([C@H](CO)NC(=O)c2ccc3c(OCC4CCOCC4)nc(C)cc3c2)cc1 [Hy1A-1, (R)-N-(1-(4-(ethylsulfonyl)phenyl)-2-hydroxyethyl)-3-methyl-1-((tetrahydro-2H-pyran-4-yl)methoxy)isoquinoline-6-carboxamide] |
| > 7.00 |  | 6.00 to 7.00 |  | CC[C@H]1CN(c2ncc(C(F)(F)F)cc2C)Cc2cc(C(=O)N[C@@H](CO)c3ccc(S(=O)(=O)CC)cc3)ccc21 (single isomer, unassigned) [Hy7-22.2] |
| > 7.00 |  | < 6.00 |  | CC[C@H]1CN(c2ncc(C(F)(F)F)cn2)Cc2cc(C(=O)NCc3ccc(S(=O)(=O)CC)cc3)ccc21 (single isomer, unassigned) [Hy7-9.2] |
| > 7.00 |  | 6.00 to 7.00 |  | CC[C@H]1CN(c2ncc(-c3ncco3)cn2)Cc2cc(C(=O)N[C@@H](CO)c3ccc(S(=O)(=O)CC)cc3)ccc21 (single isomer, unassigned) [Hy7-33.2] |
| 6.00 to 7.00 | 6.00 to 7.00 |  |  | CCS(=O)(=O)c1ccc(CNC(=O)c2ccc3c(c2)CCN(CC2CCN(C(=O)OC)CC2)[C@H]3C(C)C)cc1 [Hy2A-24, methyl (S)-4-((6-((4-(ethylsulfonyl)benzyl)carbamoyl)-1-isopropyl-3,4-dihydroisoquinolin-2(1H)-yl)methyl)piperidine-1-carboxylate] |
| > 7.00 | > 7.00 |  |  | CCS(=O)(=O)c1ccc(CNC(=O)c2ccc3c(c2)C(C)(C)CN(Cc2ccc(C#N)cc2)C3C(C)C)cc1 (single isomer, unassigned) [Hy2A-23.1] |
| > 7.00 |  | 6.00 to 7.00 |  | CCOc1cnc(N2Cc3cc(C(=O)NCc4ccc(S(=O)(=O)CC)cc4)ccc3[C@H](C(C)C)C2)nc1 (single isomer, unassigned) [Hy7-5.1] |
| > 7.00 |  | > 7.00 |  | CC[C@@H]1CN(c2ncc(C(F)(F)F)cn2)Cc2cc(C(=O)NCc3ccc(S(=O)(=O)CC)cc3)ccc21 (single isomer, unassigned) [Hy7-9.1] |
| > 7.00 | > 7.00 |  |  | CCS(=O)(=O)c1ccc([C@H](CO)NC(=O)c2cnc3c(C4CC4)n(C[C@H]4CC[C@H](C(F)(F)F)CC4)nc3c2)cc1 [Hy3B-1, 3-cyclopropyl-N-((R)-1-(4-(ethylsulfonyl)phenyl)-2-hydroxyethyl)-2-(((1r,4R)-4-(trifluoromethyl)cyclohexyl)methyl)-2H-pyrazolo[4,3-b]pyridine-6-carboxamide] |
| > 7.00 |  | 6.00 to 7.00 |  | CCS(=O)(=O)c1ccc(CNC(=O)c2ccc3c(c2)CN(Cc2ccc(C#N)cc2)C[C@H]3C(C)C)cc1 (single isomer, unassigned) [Hy7-28.1] |
| > 7.00 |  | 6.00 to 7.00 |  | CC[C@@H]1CN(c2ccc(C(F)(F)F)cc2)C(=O)c2cc(C(=O)NCc3ccc(S(=O)(=O)CC)cc3)ccc21 (single isomer, unassigned) [Hy7-12.1] |
| > 7.00 |  | > 7.00 |  | CCS(=O)(=O)c1ccc(CNC(=O)c2ccc3c(c2)CN(c2ncc(-c4ccc(=O)n(C)c4)cn2)C[C@H]3C(C)C)cc1 (single isomer, unassigned) [Hy7-24.1] |
|  |  |  | 6.00 to 7.00 | CCS(=O)(=O)c1ccc(CNC(=O)c2cnc3c(c2)CCN(Cc2ccc(F)cc2)C3C(C)C)cc1 (single isomer, unassigned) [Hy2B-6.2] |
| 6.00 to 7.00 |  |  |  | CCOC(=O)c1cnc(N2CCc3cc(C(=O)NCc4ccc(S(=O)(=O)CC)cc4)ccc3[C@H]2C(C)C)nc1 (single isomer, unassigned) [Hy2A-4.2] |
| < 6.00 |  |  |  | CC1c2ccc(C(=O)NCc3ccc(S(C)(=O)=O)cc3)cc2CCN1Cc1ccc(F)cc1 (racemic) [Hy2A-6, 2-(4-fluorobenzyl)-1-methyl-N-(4-(methylsulfonyl)benzyl)-1,2,3,4-tetrahydroisoquinoline-6-carboxamide] |
| > 7.00 |  |  |  | CCOC(=O)c1cnc(N2Cc3cc(C(=O)N[C@@H](CO)c4ccc(S(=O)(=O)CC)cc4)ccc3[C@@H](CC)C2)nc1 (single isomer, unassigned) [Hy7-34.2] |
| 6.00 to 7.00 |  |  |  | CCS(=O)(=O)c1ccc(CNC(=O)c2ccc3c(c2)CCN(Cc2ccc(C#N)cn2)[C@@H]3C(C)C)cc1 (single isomer, unassigned) [Hy2A-16.2] |
| 6.00 to 7.00 |  |  |  | CCS(=O)(=O)c1ccc(CNC(=O)c2ccc3c(c2)CCN(Cc2ncc(Br)cn2)[C@@H]3C(C)C)cc1 (single isomer, unassigned) [Hy2A-26.2] |
| 6.00 to 7.00 |  |  |  | CCS(=O)(=O)c1ccc(CNC(=O)c2ccc3c(c2)CN(c2ncc(N4CCOCC4)cn2)C[C@H]3C(C)C)cc1 (single isomer, unassigned) [Hy7-19.1] |
| 6.00 to 7.00 |  |  |  | CCC1c2ccc(C(=O)NC(CO)c3ccc(S(=O)(=O)CC)cc3)cc2CCN1CC1CCC(C(F)(F)F)CC1 (single isomer, unassigned) [Hy2A-28.3] |
|  |  |  | 6.00 to 7.00 | CCS(=O)(=O)c1ccc(CNC(=O)c2cnc3c(c2)CCN(C[C@H]2CC[C@H](C(F)(F)F)CC2)[C@@H]3C(C)C)cc1 (single isomer, unassigned) [Hy2B-9.2] |
| > 7.00 |  |  |  | CCS(=O)(=O)c1ccc(CNC(=O)c2ccc3c(c2)CCN(Cc2ccc(C#N)cc2)[C@@H]3C(C)C)cc1 (single isomer, unassigned) [Hy2A-15.2] |
| 6.00 to 7.00 |  |  |  | CC[C@H]1CN(c2ncc(-c3cccc(OC)n3)cn2)Cc2cc(C(=O)NCc3ccc(S(=O)(=O)CC)cc3)ccc21 (single isomer, unassigned) [Hy7-20.2] |
| 6.00 to 7.00 |  |  |  | CCS(=O)(=O)c1ccc(CNC(=O)c2ccc3c(c2)CN(c2ncc(-c4ccnc(OC)c4)cn2)C[C@@H]3C(C)C)cc1 (single isomer, unassigned) [Hy7-23.2] |
